Measurements as given in patent US20070021418A1, “Method of inhibiting production of osteopontin” (Kowa Co., LTD., priority 2003, published 2007).
Where two headings read alike, the source gives them in different places.

Tested on: OPN production in RPMI8226 cells
Assay: OPN production inhibiting effect in cultured RPMI8226 cells (ELISA of culture supernatant)
Assay type: cell-based, human
Conditions: RPMI8226 myeloma cells, 3 days prophase + 3 days anaphase culture, 0.1-10 μmol/L, OPN in culture supernatant by ELISA, logistic curve, read-out: IC50 (OPN production inhibition)
Description: Compounds 1 to 6 were separately dissolved in dimethylsulfoxide (DMSO) to prepare 20 mmol/L solutions of the respective compounds. Aliquots of those solutions were diluted further to prepare 6, 2, 0.6 and 0.2 mmol/L solutions of the respective compounds. The DMSO solutions of the respective compounds (1 to 6) (concentrations: 0.2 to 20 mmol/L) and DMSO (as a compound non-addition group) were separately diluted 1,000-fold with a culture medium (10% fetal-bovine-serum (FBS)-added RPMI-1640 medium) to prepare 0 (non-addition group), 0.2, 0.6, 2, 6 and 20 μmol/L solutions of the respective compounds (1-6).
3) Study on the OPN Production Inhibiting Effect of the Individual Compounds in RPMI8226 Cells
A 2×10^5 cells/mL cell suspension of RPMI8226 cells was prepared, and was seeded 2 mL by 2 mL per well on a 6-well plates. To the wells, the individual solutions prepared in the procedure 2) (the solutions of Compounds 1 to 6, having concentrations of 0 (non-addition group), 0.2, 0.6, 2, 6, and 20 μmol/L, respectively) were added 2 mL by 2 mL per well, followed by mixing to bring the final concentrations of Compound 1-6 in the individual wells to 0 (non-added group), 0.1, 0.3, 1, 3 and 10 μmol/L. The cells of those conditions were cultured as prophase culture at 37° C. for 3 days in the presence of 5% CO2.
After the above-described culture, the cells in the respective wells were collected, and were counted well by well. Those cells were again suspended separately in aliquots of a 2×10^5 cells/mL suspension, and the cells of the respective conditions were each seeded 0.5 mL by 0.5 mL per well in two wells. To the wells of the respective conditions, individual solutions prepared at the same concentrations as those at the time of the culture in a similar manner as in the prophase culture (individual solutions of Compounds 1 to 6, having concentrations of […], respectively) were added 0.5 mL by 0.5 mL per sell to the individual wells. After mixing, the cells were cultured as anaphase culture at 37° C. for 3 days in the presence of 5% CO2.
Subsequent to the completion of the anaphase culture, culture supernatants were separately collected from the respective wells, and the OPN concentrations in the individual culture supernatants were quantitated with an absorptiometer by ELISA (Human Osteopontin Measurement Kit IBL; IBL Co., Ltd.).
Using the SAS Preclinical Package, Version 5.0, the measurement values were analyzed by the following procedure. Described specifically, the concentrations were logarithmically converted (the compound non-addition group (0 μmol/L) was replaced by 1 pmol/L), and using the measurement values (6 concentrations, 2 measurement values per concentration, 12 measurement values in total), plotting into a logistic curve was conducted. From the curve, concentrations (IC50) which give 50% reactivity were calculated.

| IC50 (Homo sapiens, RPMI-8226, 72 h) | IC50 | SMILES |
| --- | --- | --- |
| 1120 nM |  | CCn1nc(-c2ccc(OC)cc2)c(-c2ccc(OC)cc2)cc1=O [Compound 6, 5,6-bis(4-methoxyphenyl)-2-ethyl-2H-pyridazin-3-one] |
| 2760 nM |  | COc1ccc(-c2cc(=O)n(CC=Cc3ccc(Cl)cc3)nc2-c2ccc(OC)cc2)cc1 [Compound 3, 5,6-bis(4-methoxyphenyl)-2-(4-chlorocinnamyl)-2H-pyridazin-3-one] |
|  | 2420 nM | COc1ccc(-c2nn(Cc3ccc(Cl)cc3)c(=O)cc2-c2ccncc2)cc1 [Compound 5] |

The next lines start with the compound.

| SMILES | IC50 (Homo sapiens, RPMI-8226, 72 h) | IC50 |
| --- | --- | --- |
| CSc1ccc(-c2nn(Cc3ccccn3)c(=S)cc2-c2ccc(Cl)cc2)cc1 [Compound 1, 5-(4-chlorophenyl)-6-[4-(methylthio)phenyl]-2-(2-pyridylmethyl)-2H-pyridazine-3-thione methanesulfonate] | 2090 nM |  |
| CSc1ccc(-c2nn(Cc3ccccc3)c(=O)cc2-c2ccc(Cl)cc2)cc1 [Compound 4, 2-benzyl-5-(4-chlorophenyl)-6-[4-(methylthio)phenyl]-2H-pyridazin-3-one] | 2560 nM |  |
| CSc1ccc(-c2nn(Cc3cccnc3)c(=O)cc2-c2ccc(Cl)cc2)cc1 [Compound 2, 5-(4-chlorophenyl)-6-[4-(methylthio)phenyl]-2-(3-pyridylmethyl)-2H-pyridazin-3-one methanesulfonate] | 2910 nM |  |
